Test results taken from patent US9907806B2, “Pharmaceutical composition for emergency contraception” (Bayer Intellectual Property GmbH, priority 2009, dated 2018).
Where “and” joins values, the source holds several entries; their conditions need not be identical. Identical values can stand only once. Like-named read-outs stand apart in the source and are kept apart here.

How the values were obtained:
ovulation [1] = details: 21-day use; cited from earlier work
[2] = test system: adult female rats with normal cycles; test: Ovulation inhibition test on rats; format: in vivo, rat; details: 5 animals; for Ovulation count, absolute / Ovulation count, mean: 4 days
Experimental: The efficacy of the composition according to the invention was ascertained by ovulation-inhibiting studies carried out on adult female rats with normal cycles. First, using 5 dose groups plus placebo (0.003 mg, 0.01 mg, 0.03 mg, 0.1 mg and 0.3 mg), the limit dose of levonorgestrel (LNG) was determined at which there is still no ovulation-inhibiting effect.
With the dose of LNG thus determined (0.01 mg), a comparison test was then carried out in which the ovulation-inhibiting effect of LNG, placebo, meloxicam, piroxicam, and the combination of LNG and meloxicam, was compared against the composition, according to the invention, of LNG plus piroxicam.
With the onset of the metestrus, 5 animals in each case were treated on four successive days with (a) placebo, (b) 0.01 mg of LNG, (c) 2 mg of piroxicam, (d) 0.01 mg of LNG and 2 mg of piroxicam, (e) 2 mg of meloxicam, and (f) […] of LNG and 3 mg of meloxicam. LNG was given by s.c. administration, and the COX inhibitor was given orally (p.o.).
In the following test, female rats weighing between 200 and 220 g were used. The animals were housed in macrolon cages in rooms under controlled lighting conditions (12 hours of darkness, 12 hours of light), were fed a standard diet and had access to water ad libitum.
Levonorgestrel was dissolved in benzyl benzoate/castor oil (1+4 v/v), and the daily dose was given by s.c. administration in a volume of 1 ml/kg body weight.
The COX inhibitors were suspended in a carrier liquid (85 mg of MyrjR53 (2-hydroxyethyl octadecanoate; CAS no. 9004-99-3) in 100 ml of 0.9% w/v NaCl solution), and the daily dose corresponding to the treatment group was administered orally in a volume of 2 ml/kg body weight.
(§1) Two cycles were monitored using vaginal smears before the start of the test. Only animals with a regular 4-day cycle were entered in the test. The allocation to the treatment groups was randomized. Starting in the metestrus, the test substance was administered for 4 days (days 1-4) and the cycle continued to be monitored. On day 3 of treatment (proestrus), a retrobulbar blood sample was taken at 9.00 h and from 18.30 h in order to determine the luteinizing hormone (LH). On day 4 (after administration), the animals with vaginal smears showing them in estrus or metestrus underwent unilateral ovariectomy under anaesthetic. Crush preparations were made from the tubes and were examined under a microscope for the presence of oocytes. On day 5, all the animals (the intact animals and those having undergone unilateral ovariectomy) were sacrificed, and the tubes of the animals in estrus and metestrus were prepared and examined in the same way. […] By contrast, the COX inhibitors on their own provide only partial suppression of ovulation.
(§2) The test set-up corresponds to the one described in Example 1.

ovulation [3] = details: cited from earlier work
[4] = test system: adult female rats with normal cycles; test: Ovulation inhibition test on rats; format: in vivo, rat
[5] = test system: ovulated cumulus-oocyte complexes; test: In vitro fertilization rate of ovulated cumulus-oocyte complexes after in vivo treatment (Example 3); parameters: species or system mice; details: n=5 animals
From the text: Substances can influence fertility by reducing the fertilizability of oocytes or cumulus-oocyte complexes. In order to investigate such effects, substances can be administered in vivo and, after ovulation from cumulus/oocyte complexes, can be subjected to in vitro fertilization. The in vitro fertilization rate, with no further test substance being added, allows conclusions to be drawn regarding the in vivo effects of the test substances.
Immature female mice (strain: B6D2F1, Charles River, Suelzfeld, age: 19-25 days) were housed in macrolon cages in rooms under controlled lighting conditions (12 hours of darkness, 12 hours of light), were fed a standard diet and had access to water ad libitum. The mice were primed with PMSG (Pregnant Mare Serum Gonadotropin) (10 IU/animal i.p.). After 48 hours, an ovulation-triggering stimulus was induced in the animals by administration of 10 IU/animal i.p. The COX inhibitors were suspended in a carrier liquid (85 mg MyrjR53 (2-hydroxyethyl octadecanoate; CAS no. 9004-99-3) in 100 ml of 0.9% w/v NaCl solution), and the daily dose corresponding to the treatment group (n=5 animals per group) was administered in a volume of 0.2 ml p.o. 8 hours before and together with hCG. Fourteen hours after hCG administration, the animals were sacrificed. Ovulated oocytes and cumulus-oocyte complexes were recovered from the ovarian bursa and/or oviduct and subjected to in vitro fertilization, with a sperm count of 40,000 sperm/0.5 ml for 1 hour being used for the fertilization. Twenty-four hours after incubation with the sperm, the number of fertilized oocytes was established and the percentage fertilization rate determined.

[6] = test system: serum progesterone concentration; test: Serum progesterone concentration in proestrus at 19.00 h (Example 2); format: in vivo, rat
Experimental: This can be seen as an indicator of the efficiency of the LH peak in changing from a predominantly estrogen-producing ovary (before the LH peak) to a predominantly progesterone-producing ovary (caused by the LH peak). […] By contrast, the literature describes that other COX inhibitors have no effect on the hormonal levels [Pall et al.; Human Reproduction vol. 16, no. 7, pp 1323-1328 (2001); Bata et al., J Clin Pharmacol (2006) 46:925-932]. […] The ovulation rates in the combination with 0.01 mg of levonorgestrel and 0.5 mg of piroxicam (31 oocytes), with 1 mg of piroxicam (19 oocytes) and with 2 mg of piroxicam (0 oocytes) were much lower here and, in the highest dose, even led to complete anovulation (10 animals per group).
as §1, §2

[7] = 25 mg on 9 successive days (Pall et al.)

## CC(=O)[C@H]1CC[C@H]2[C@@H]3CCC4=CC(=O)CC[C@]4(C)[C@H]3CC[C@]12C [Progesterone]
Ovulation [1]
  minimal dose for inhibition of ovulation, p.o. dose/day: 300 mg^33

## CC(=O)[C@@]1(C)CC[C@H]2[C@@H]3C=C(C)C4=CC(=O)CC[C@]4(C)[C@H]3CC[C@@]21C [Medrogestone]
Ovulation [1]
  minimal dose for inhibition of ovulation, p.o. dose/day: 10 mg^33

## C#C[C@]1(OC(C)=O)CC[C@H]2[C@@H]3CCC4=CC(=NO)CC[C@@H]4[C@H]3CC[C@@]21CC (mixture of isomers) [Norgestimate (NGM), Norgestimate]
Ovulation [1]
  minimal dose for inhibition of ovulation, p.o. dose/day: 180-250 μg^31

## Cc1cnc(NC(=O)C2=C(O)c3ccccc3S(=O)(=O)N2C)s1 [Meloxicam, meloxicam]
[2]; COX inhibitor 2 mg p.o.
  Ovulation count, absolute: 28
  Ovulation count, mean: 5.6 ± 2.5
Ovulation [3]; 30 mg per patient and day on 5 successive days (Bata et al.)
  delay in ovulation: 5 days

## C#C[C@]1(O)CC[C@H]2[C@@H]3CCC4=CC(=O)CC[C@@H]4[C@H]3CC[C@@]21CC [LNG, levonorgestrel]
[2]; LNG 0.01 mg s.c.
  Ovulation count, absolute: 35
  Ovulation count, mean: 7.0 ± 2.0
[4]; Example 2, LNG on its own (0.01 mg s.c.), 10 animals per group
  oocytes ovulated: 68 oocytes
[4]; treatment group (b), 0.1 mg of levonorgestrel, 5 animals
  oocytes ovulated: 35 oocytes

## C#C[C@]1(O)CC[C@H]2[C@@H]3CCC4=CCCC[C@@H]4[C@H]3C(=C)C[C@@]21CC [Desogestrel (DSG), Desogestrel]
Ovulation [1]
  minimal dose for inhibition of ovulation, p.o. dose/day: 60 μg^28

## C[C@H](O)C(=O)[C@@]1(C)CC[C@H]2[C@@H]3CCC4=CC(=O)CCC4=C3CC[C@@]21C [Trimegestone]
Ovulation [1]
  minimal dose for inhibition of ovulation, p.o. dose/day: 0.5 mg^33

## C[C@]12CCC(=O)C=C1[C@@H]1C[C@@H]1[C@H]1[C@@H]3[C@@H]4C[C@@H]4[C@@]4(CCC(=O)O4)[C@@]3(C)CC[C@@H]12 [Drospirenone (DRSP), Drospirenone]
Ovulation [1]
  minimal dose for inhibition of ovulation, p.o. dose/day: 2 mg^33

## CC(=O)O[C@]1(C(C)=O)CC[C@H]2[C@@H]3C=C(Cl)C4=CC(=O)[C@@H]5C[C@@H]5[C@]4(C)[C@H]3CC[C@@]21C [Cyproterone acetate (CPA), Cyproterone acetate]
Ovulation [1]
  minimal dose for inhibition of ovulation, p.o. dose/day: 1 mg^33

## CC(=O)O[C@]1(C(C)=O)CC[C@H]2[C@@H]3C[C@H](C)C4=CC(=O)CC[C@]4(C)[C@H]3CC[C@@]21C [Medroxyprogesterone acetate (MPA), Medroxyprogesterone acetate]
Ovulation [1]
  minimal dose for inhibition of ovulation, p.o. dose/day: 10 mg^33

## C#C[C@]1(O)CC[C@H]2[C@@H]3CCC4=CCCC[C@@H]4[C@H]3CC[C@@]21C [Lynestrenol]
Ovulation [1]
  minimal dose for inhibition of ovulation, p.o. dose/day: 2 mg^33

## CN1C(C(=O)Nc2ccccn2)=C(O)c2ccccc2S1(=O)=O [Piroxicam, piroxicam]
[5]; 2 × 0.15 mg/animal p.o.
  Fertilization rate (% ± SD): 19 ± 8%
[5]; 2 × 0.3 mg/animal p.o.
  Fertilization rate (% ± SD): 14 ± 18%
[5]; 2 × 0.5 mg/animal p.o.
  Fertilization rate (% ± SD): 12 ± 7%
[2]; COX inhibitor 2 mg p.o.
  Ovulation count, absolute: 9
  Ovulation count, mean: 1.8 ± 0.4
[2]; treatment group (c), 2 mg piroxicam on its own
  oocytes ovulated: 9 oocytes
[4]; 1 mg piroxicam alone
  oocytes ovulated: 28 oocytes
[4]; Example 2, 0.5 mg piroxicam p.o., 10 animals per group
  oocytes ovulated: 85 oocytes
[4]; Example 2, 1 mg piroxicam p.o., 10 animals per group
  oocytes ovulated: 56 oocytes
[4]; Example 2, 2 mg piroxicam p.o., 10 animals per group
  oocytes ovulated: 30 oocytes
[6]; 0.5 mg p.o.
  Progesterone in proestrus at 19.00 h—mean ± SD (n = 10): 237 ± 49
[6]; 1 mg p.o.
  Progesterone in proestrus at 19.00 h—mean ± SD (n = 10): 183 ± 67
[6]; 2 mg p.o.
  Progesterone in proestrus at 19.00 h—mean ± SD (n = 10): 122 ± 94

## CC(=O)O[C@]1(C(C)=O)CC[C@H]2[C@@H]3C=C(C)C4=CC(=O)CC[C@@H]4[C@H]3CC[C@@]21C [Nomegestrol acetate (NOMAc), Nomegestrol acetate]
Ovulation [1]
  minimal dose for inhibition of ovulation, p.o. dose/day: 2.5 mg^32

## C#C[C@]1(O)CC[C@H]2[C@@H]3CCC4=C[C@@H](O)CC[C@@H]4[C@H]3CC[C@@]21C [Ethynodiol]
Ovulation [1]
  minimal dose for inhibition of ovulation, p.o. dose/day: 2 mg33

## CC(=O)[C@H]1CC[C@H]2[C@@H]3C=CC4=CC(=O)CC[C@@]4(C)[C@@H]3CC[C@]12C [Dydrogesterone]
Ovulation [1]
  minimal dose for inhibition of ovulation, p.o. dose/day: >30 mg^33

## C#C[C@]1(O)C=C[C@H]2[C@@H]3CCC4=CC(=O)CC[C@@H]4[C@H]3CC[C@@]21CC [Gestodene (GSD), Gestodene]
Ovulation [1]
  minimal dose for inhibition of ovulation, p.o. dose/day: 30 µg and 40 to 50 µg

## C[C@]12CCC3=C4CCC(=O)C=C4CC[C@H]3[C@@H]1CC[C@@]2(O)CC#N [Dienogest (DNG), Dienogest]
Ovulation [1]
  minimal dose for inhibition of ovulation, p.o. dose/day: 1-2 mg^29

## CCC(=O)[C@@]1(C)CC[C@H]2[C@@H]3CCC4=CC(=O)CCC4=C3CC[C@@]21C [Promegestone]
Ovulation [1]
  minimal dose for inhibition of ovulation, p.o. dose/day: 0.5 mg^33

## C#C[C@]1(OC(C)=O)CC[C@H]2[C@@H]3CCC4=CC(=O)CC[C@@H]4[C@H]3CC[C@@]21C [Norethisterone acetate (NETA), Norethisterone acetate]
Ovulation [1]
  minimal dose for inhibition of ovulation, p.o. dose/day: 0.5 mg^33

## CS(=O)(=O)c1ccc(C2=C(c3ccccc3)C(=O)OC2)cc1 [rofecoxib]
Ovulation [3]; [7]
  delay in ovulation: over 48 hours
  patients with delay in ovulation of over 48 hours: 4 of 6

## C#C[C@]1(O)CC[C@H]2[C@@H]3CCC4=CC(=O)CC[C@@H]4[C@H]3CC[C@@]21C [Norethisterone]
Ovulation [1]
  minimal dose for inhibition of ovulation, p.o. dose/day: 0.5 mg^33
